# Data as given in ChEMBL document CHEMBL4130387, “Design, synthesis and in vivo study of novel pyrrolidine-based 11β-HSD1 inhibitors for age-related cognitive dysfunction” (Eur J Med Chem, 2017).
# Calls of active or inactive are those of the source. The rule behind the calls is not given here.
# How the values were obtained:
# [1] = target: T1, 11-beta-hydroxysteroid dehydrogenase type 2 (Homo sapiens, UniProt P80365); experiment: Inhibition of human full-length 11beta-HSD2 expressed in HEK293 cells using cortisol as substrate after 2 hrs by LC-MS analysis; type: cell-based
# T1 sequence (P80365 whole entry): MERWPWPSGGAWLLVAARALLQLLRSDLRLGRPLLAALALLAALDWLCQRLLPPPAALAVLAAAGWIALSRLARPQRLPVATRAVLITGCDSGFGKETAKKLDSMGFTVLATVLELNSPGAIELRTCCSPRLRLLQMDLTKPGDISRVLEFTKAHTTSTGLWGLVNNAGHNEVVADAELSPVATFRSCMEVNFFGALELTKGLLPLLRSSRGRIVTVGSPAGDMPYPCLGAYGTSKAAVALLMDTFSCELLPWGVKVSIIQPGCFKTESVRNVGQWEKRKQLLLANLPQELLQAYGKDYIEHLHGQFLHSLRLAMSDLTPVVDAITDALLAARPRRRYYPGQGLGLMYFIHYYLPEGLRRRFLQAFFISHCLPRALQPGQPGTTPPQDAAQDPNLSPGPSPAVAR
# [2] = Stability in human liver microsomes at 10 uM after 30 mins by LC-MS/MS analysis; type: ADME, microsome; settings: read-out: Stability
# [3] = target: 11-beta-hydroxysteroid dehydrogenase 1 (Homo sapiens, UniProt P28845); experiment: Inhibition of 11beta-HSD1 in human liver microsomes using [3H]cortisone as substrate preincubated for 15 mins followed by substrate addition and measured after 30 mins by scintillation proximity assay
# Sequence of 11-beta-hydroxysteroid dehydrogenase 1 (Homo sapiens, UniProt P28845) (P28845 whole entry): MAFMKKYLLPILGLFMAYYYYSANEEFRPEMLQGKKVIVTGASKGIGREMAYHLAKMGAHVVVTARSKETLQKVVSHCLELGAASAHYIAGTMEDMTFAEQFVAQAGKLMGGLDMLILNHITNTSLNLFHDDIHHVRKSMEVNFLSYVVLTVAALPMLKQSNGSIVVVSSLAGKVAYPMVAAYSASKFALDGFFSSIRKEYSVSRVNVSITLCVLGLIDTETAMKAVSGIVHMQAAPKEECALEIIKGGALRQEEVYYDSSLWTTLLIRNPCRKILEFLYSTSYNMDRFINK
# [4] = Effective permeability by PAMPA; type: ADME; settings: read-out: Peff
# [5] = system: Mus musculus; experiment: Cognitive enhancing effect in SAMP8 mouse assessed as prevention of short-term memory deficits by measuring time spent on exploring novel objects at 21 mg/kg, po for 4 days and measured during 10 mins retention trial after 24 hrs by novel object recognition test; type: functional, organism-based
# [6] = Drug uptake in CD1 mouse brain at 21 mg/kg, po after 3 hrs by UPLC-MS/MS analysis; type: ADME, organism-based; settings: read-out: Drug uptake
# [7] = system: Mus musculus; experiment: Effect on pre-APP protein levels in SAMP8 mouse brain at 21 mg/kg, po for 4 days by Western blot analysis; type: functional, organism-based
# [8] = AUC (infinity) in CD1 mouse at 21 mg/kg, po by UPLC-MS/MS analysis; type: ADME, organism-based; design: dose 21 mg/kg, time infinity, route oral; settings: in vivo
# [9] = Apparent oral clearance in CD1 mouse at 21 mg/kg, po by UPLC-MS/MS analysis; type: ADME, organism-based; settings: in vivo
# [10] = Stability in mouse liver microsomes at 10 uM after 30 mins by LC-MS/MS analysis; type: ADME, microsome; settings: read-out: Stability
# [11] = Plasma concentration in CD1 mouse at 21 mg/kg, po after 0.5 hrs by UPLC-MS/MS analysis; type: ADME, organism-based
# [12] = Cmax in CD1 mouse at 21 mg/kg, po by UPLC-MS/MS analysis; type: ADME, organism-based; design: dose 21 mg/kg, route oral; settings: in vivo
# [13] = target: 11-beta-hydroxysteroid dehydrogenase 1 (Mus musculus, UniProt P50172); experiment: Inhibition of 11beta-HSD1 in CD1 mouse liver microsomes using cortisone as substrate preincubated for 15 mins followed by substrate addition and measured after 30 mins by LC-MS analysis
# Sequence of 11-beta-hydroxysteroid dehydrogenase 1 (Mus musculus, UniProt P50172) (P50172 whole entry): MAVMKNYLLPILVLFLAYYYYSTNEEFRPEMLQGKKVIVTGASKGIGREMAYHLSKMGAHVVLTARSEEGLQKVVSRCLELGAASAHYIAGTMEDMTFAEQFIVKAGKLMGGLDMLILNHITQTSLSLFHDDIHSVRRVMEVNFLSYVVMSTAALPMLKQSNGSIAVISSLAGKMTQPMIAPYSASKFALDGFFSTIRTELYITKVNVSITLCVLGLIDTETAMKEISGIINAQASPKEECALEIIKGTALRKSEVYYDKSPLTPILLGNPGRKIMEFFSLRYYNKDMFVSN
# [14] = Apparent volume of distribution during terminal phase in CD1 mouse at 21 mg/kg, po by UPLC-MS/MS analysis; type: ADME, organism-based; settings: in vivo, read-out: Vz/F
# [15] = system: Mus musculus; experiment: Upregulation of PSD95 mRNA levels in SAMP8 mouse at 21 mg/kg, po for 4 days by qRT-PCR analysis; type: functional, organism-based
# [16] = system: Mus musculus; experiment: Extrapolated AUC in CD1 mouse at 21 mg/kg, po by UPLC-MS/MS analysis; type: ADME, organism-based; settings: in vivo
# [17] = system: Mus musculus; experiment: Effect on Bace1 mRNA levels in SAMP8 mouse brain at 21 mg/kg, po for 4 days by qRT-PCR analysis; type: functional, organism-based
# [18] = Elimination rate constant in CD1 mouse at 21 mg/kg, po by UPLC-MS/MS analysis; type: ADME, organism-based; settings: in vivo
# [19] = system: Mus musculus; experiment: Upregulation of IDE protein levels in SAMP8 mouse brain at 21 mg/kg, po for 4 days by Western blot analysis; type: functional, organism-based
# [20] = Apparent half-life of the terminal disposition phase in CD1 mouse at 21 mg/kg, po by UPLC-MS/MS analysis; type: ADME, organism-based; settings: in vivo, read-out: t1/2 lambda z (converted)
# [21] = Plasma concentration in CD1 mouse at 21 mg/kg, po after 1 hr by UPLC-MS/MS analysis; type: ADME, organism-based
# [22] = system: Mus musculus; experiment: Effect on pre-APP mRNA levels in SAMP8 mouse brain at 21 mg/kg, po for 4 days by qRT-PCR analysis; type: functional, organism-based
# [23] = system: Mus musculus; experiment: Cognitive enhancing effect in SAMP8 mouse assessed as prevention of short-term memory deficits by measuring time spent on exploring novel objects at 21 mg/kg, po for 4 days and measured during 10 mins retention trial after 2 hrs by novel object recognition test; type: functional, organism-based
# [24] = Plasma concentration in CD1 mouse at 21 mg/kg, po after 3 hrs by UPLC-MS/MS analysis; type: ADME, organism-based
# [25] = system: Mus musculus; experiment: Downregulation of IL-6 mRNA levels in SAMP8 mouse at 21 mg/kg, po for 4 days by qRT-PCR analysis; type: functional, organism-based
# [26] = system: Mus musculus; experiment: Dose normalized AUC (infinity) in CD1 mouse at 21 mg/kg, po by UPLC-MS/MS analysis; type: ADME, organism-based; settings: in vivo
# [27] = Tmax in CD1 mouse at 21 mg/kg, po by UPLC-MS/MS analysis; type: ADME, organism-based; settings: in vivo
# [28] = AUClast in CD1 mouse at 21 mg/kg, po by UPLC-MS/MS analysis; type: ADME, organism-based; design: dose 21 mg/kg, time 0 - last, route oral; settings: in vivo
# [29] = Plasma concentration in CD1 mouse at 21 mg/kg, po after 5 hrs by UPLC-MS/MS analysis; type: ADME, organism-based
# [30] = system: Mus musculus; experiment: Downregulation of iNOS mRNA levels in SAMP8 mouse at 21 mg/kg, po for 4 days by qRT-PCR analysis; type: functional, organism-based
# [31] = system: Mus musculus; experiment: Dose normalized Cmax in CD1 mouse at 21 mg/kg, po by UPLC-MS/MS analysis; type: ADME, organism-based; settings: in vivo
# [32] = system: Mus musculus; experiment: Downregulation of APP beta-secretase C-terminal fragment protein levels in SAMP8 mouse brain at 21 mg/kg, po for 4 days by Western blot analysis; type: functional, organism-based
# [33] = Ratio of plasma concentration in CD1 mouse at 21 mg/kg, po after 0.5 hrs by UPLC-MS/MS analysis to IC50 for inhibition of 11beta-HSD1 in human liver microsomes; type: organism-based; settings: in vivo
# [34] = system: Mus musculus; experiment: Effect on ADAM10 mRNA levels in SAMP8 mouse brain at 21 mg/kg, po for 4 days by qRT-PCR analysis; type: functional, organism-based
# [35] = target: T2, 11-beta-hydroxysteroid dehydrogenase type 2 (Homo sapiens) (UniProt P80365); experiment: Inhibition of human full-length 11beta-HSD2 expressed in HEK293 cells at 10 uM using cortisol as substrate after 2 hrs by LC-MS analysis relative to control; type: cell-based
# T2 sequence (whole entry): T1 sequence (P80365 whole entry)
compound,measurement,setting,value
O=C(C1CCCCC1)N1CC2C3C=CC(C4CC34)C2C1 (configuration not stated),IC50,[1],1000 to 10000 nM
same,"remaining at 0.5 h, 10 µM",[2],27%
same,IC50,[3],20 nM
O=C(C1CCCCC1)N1CC2C3CCC(C3)C2C1 (configuration not stated),IC50,[1],< 100 nM
same,"remaining at 0.5 h, 10 µM",[2],37%
same,Papp,[4],5.2 ×10⁻⁶ cm/s
same,IC50,[3],90 nM
O=C(C1CCCCC1)N1CC2C3CCC(CC3)C2C1 (configuration not stated),IC50,[1],100 to 1000 nM
same,"remaining at 0.5 h, 10 µM",[2],17%
same,IC50,[3],20 nM
O=C(C1CCCCC1)N1CC2C3CCC(C4CC34)C2C1 (configuration not stated),Activity,[5],Active
same,concentration at 3 h,[6],1.45 ng/mL
same,Activity,[7],inactive
same,AUC(0-inf),[8],40 ng·h/mL
same,CL/F,[9],525 L/h/kg
same,"remaining at 0.5 h, 10 µM",[10],93%
same,concentration at 0.5 h,[11],44.6 ng/mL
same,Cmax,[12],44.6 ng/mL
same,IC50,[13],80 nM
same,Vd/F,[14],583 L/kg
same,Activity,[15],Active
same,IC50,[1],< 100 nM
same,%AUCextra,[16],0.787%
same,Activity,[17],inactive
same,k el,[18],0.00025 s⁻¹
same,Activity,[19],Active
same,half-life,[20],46.3 min
same,concentration at 1 h,[21],10.3 ng/mL
same,"remaining at 0.5 h, 10 µM",[2],94%
same,Activity,[22],inactive
same,Activity,[23],Active
same,concentration at 3 h,[24],2.12 ng/mL
same,Activity,[25],Active
same,AUC/dose,[26],1.906 kg·ng·h/mL/mg
same,Tmax,[27],30 min
same,AUC(0-t),[28],39.7 ng·h/mL
same,concentration at 5 h,[29],0.28 ng/mL
same,Activity,[30],Active
same,Cmax/dose,[31],2.123 kg·ng/mL/mg
same,Activity,[32],Active
same,Papp,[4],> 30 ×10⁻⁶ cm/s
same,Ratio,[33],5
same,Activity,[34],inactive
same,IC50,[3],30 nM
CCN1CCC[C@@H]1C(=O)NC1C2CC3CC(C2)CC1C3 (some centres not stated),inhibition,[35],88%
same,"remaining at 0.5 h, 10 µM",[2],79%
O=C(C1CCCCC1)N1CC2C3C=CC(CC3)C2C1 (configuration not stated),"remaining at 0.5 h, 10 µM",[2],44%
O=C(C1CCCCC1)N1CC2C3C=CC(C3)C2C1 (configuration not stated),IC50,[1],< 100 nM
same,"remaining at 0.5 h, 10 µM",[2],60%
same,IC50,[3],20 nM
O=C(C1CCCCC1)N1CC23CC=CCC2(CC=CC3)C1 (configuration not stated),inhibition,[35],100%
same,IC50,[3],40 nM
